Experiment: molar heat capacity at constant pressure; xn = mol fraction of the nth substance listed
Conditions: 101 kPa, Liquid, Small sample (50 mg) DSC

NCCCO [3-amino-1-propanol] + O
Conditions	molar heat capacity at constant pressure [J/K/mol]
165.08 K, x1 = 0.16	65.7
166.96 K, x1 = 0.19	68.12
169.79 K, x1 = 0.16	66.79
170.28 K, x1 = 0.16	66.25
171.23 K, x1 = 0.19	71.87
171.67 K, x1 = 0.19	69.27
173.58 K, x1 = 0.16	66.79
174.5 K, x1 = 0.16	67.06
174.5 K, x1 = 0.26	77.55
174.53 K, x1 = 0.19	71.87
174.68 K, x1 = 0.26	82.48
176.39 K, x1 = 0.19	69.56
179.21 K, x1 = 0.16	67.6
179.21 K, x1 = 0.26	77.88
179.69 K, x1 = 0.68	127.32
180.18 K, x1 = 0.16	67.88
180.19 K, x1 = 0.68	138.69
181.09 K, x1 = 0.19	69.85
181.12 K, x1 = 0.19	72.74
181.28 K, x1 = 0.26	82.81
183.49 K, x1 = 0.16	68.69
183.49 K, x1 = 0.68	138.69
183.93 K, x1 = 0.16	68.42
183.93 K, x1 = 0.26	78.21
184.41 K, x1 = 0.68	127.32
184.43 K, x1 = 0.19	73.31
184.59 K, x1 = 0.26	83.14
185.82 K, x1 = 0.19	70.43
188.65 K, x1 = 0.16	69.5
188.65 K, x1 = 0.26	78.86
189.12 K, x1 = 0.68	127.32
190.09 K, x1 = 0.16	70.05
190.1 K, x1 = 0.68	139.26
190.54 K, x1 = 0.19	71.29
191.04 K, x1 = 0.19	75.04
191.2 K, x1 = 0.26	84.12
193.38 K, x1 = 0.16	70.32
193.38 K, x1 = 0.26	79.52
193.4 K, x1 = 0.16	70.05
193.41 K, x1 = 0.68	139.83
193.85 K, x1 = 0.68	127.32
194.35 K, x1 = 0.19	75.62
194.51 K, x1 = 0.26	84.78
195.27 K, x1 = 0.19	71.87
198.1 K, x1 = 0.16	71.41
198.1 K, x1 = 0.26	79.85
198.58 K, x1 = 0.68	127.89
199.99 K, x1 = 0.19	73.02
200.03 K, x1 = 0.68	140.96
200.98 K, x1 = 0.19	77.06
201.13 K, x1 = 0.26	86.42
202.83 K, x1 = 0.16	72.49
202.84 K, x1 = 0.26	80.84
203.31 K, x1 = 0.68	129.03
203.35 K, x1 = 0.68	141.53
204.28 K, x1 = 0.19	77.64
204.44 K, x1 = 0.26	86.75
204.72 K, x1 = 0.19	73.89

— the NIST ThermoML archive (doi:10.1016/j.tca.2015.02.020)
